In patent US20160166638A1, “LACTOFERRIN-OSTEOPONTIN-IRON COMPLEX” (NESTEC S.A., priority 2013, published 2016):

Test: Colour change of iron fortified strawberry-banana yoghurt after flash pasteurization (CIELAB colorimetry)
Format: physicochemical
Details: colour difference vs yoghurt with no iron salts; Jogolino Strawberry/Banana yoghurt, approx. 0.8 mg iron per 100 g; flash pasteurized at 105° C. for 2 minutes
Procedure: Commercial yoghurt, Nestlé Jogolino™ Strawberry/Banana yoghurt containing 15% banana puree and 10% strawberry puree, was iron fortified by the addition of different iron containing materials to 5 kg yoghurt as reported in the table below. The amounts were chosen to provide approximately 0.8 mg iron per 100 g yoghurt. A 100 g serving of yoghurt with that level of iron would provide 15% of the recommended daily amount of iron for an infant [Official Journal of the European Union, Commission Directive 2006/125/EC].
For the lactoferrin-osteopontin-iron complex (Trial B), the powder from Example 1 was added to yoghurt at a level of 28 g per 5 kg yoghurt. The resulting yoghurt composition comprised 5.6 g powder per kg which is 4 g LF-OPN-Fe complex per kg.
The yoghurts were flash pasteurized at 105° C. for 2 minutes. Colour measurements were performed in 1×1 cm polystyrene cuvettes using an X-Rite ColorEye 7000A colorimeter. The colorimeter was set up with a D65 light source, 10 degree observer angle and with specular component included. The colour difference between the yoghurt with no iron salts and the iron fortified yoghurt was measured for each iron salt and expressed as ΔEab* using the CIELAB colour scale.

O.O=S(=O)([O-])[O-].[Fe+2] [FeSO4 × H2O]
ΔEab*: 4.74

O.O=C([O-])CN(CCN(CC(=O)[O-])CC(=O)[O-])CC(=O)[O-].[Fe+3].[Na+] [NaFeEDTA × H2O]
ΔEab*: 3.11
